Experimental data: patent US9809574B2, “Isoindoline or isoquinoline compounds, a process for their preparation and pharmaceutical compositions containing them” (LES LABORATOIRES SERVIER, priority 2013, dated 2017)
Where a name gives a salt, the structure may show the parent alone.

Columns and labels:
Bcl-2 protein = Bcl-2 protein (histag-Bcl-2, UniProtKB P10415) (Homo sapiens (Human), UniProt P10415); assay: Inhibition of Bcl-2 by the fluorescence polarisation technique; assay type: binding; details: fluorescence polarisation test; incubation for 2 hours; read-out: IC50 (nM) Bcl-2 FP
Source text: For partial inhibitors, the percentage fluorescence polarisation inhibition for a given concentration of the test compound is indicated.

[1] = tested on: RS4; 11 leukaemia cell line; assay: In vitro cytotoxicity, Microculture Tetrazolium Assay (MTT); assay type: cell-based; details: Homo sapiens, 11 cells exposed for 48 hours
Protocol: The cytotoxicity studies were carried out on the RS4; 11 leukaemia cell line and on H146 small Cell Lung Carcinoma cell line. The cells are distributed onto microplates and exposed to the test compounds for 48 hours. The cell viability is then quantified by a colorimetric assay, the Microculture Tetrazolium Assay (Cancer Res., 1987, 47, 939-942).

Sequence of Bcl-2 protein (P10415 whole entry): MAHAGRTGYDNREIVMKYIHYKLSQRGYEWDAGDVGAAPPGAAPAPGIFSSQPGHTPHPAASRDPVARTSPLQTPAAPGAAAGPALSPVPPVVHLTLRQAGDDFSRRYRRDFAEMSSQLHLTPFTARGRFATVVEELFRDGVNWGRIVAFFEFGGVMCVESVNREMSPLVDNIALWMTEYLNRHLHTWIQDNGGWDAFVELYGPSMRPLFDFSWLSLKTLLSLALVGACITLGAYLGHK

IC50 (Bcl-2 protein)	Compound	IC50 [1]
6.7 nM	Cc1c(C(=O)N(C)c2ccc(O)cc2)cc(-c2cc3c(cc2C(=O)N2Cc4ccccc4C[C@H]2C)CN(C(=O)C(C)Oc2ccccc2)C3)n1C (stereo partly drawn) [Example 104, N-(4-hydroxyphenyl)-N,1,2-trimethyl-5-{6-[(3R)-3-methyl-1,2,3,4-tetrahydroisoquinoline-2-carbonyl]-2-(2-phenoxypropanoyl)-2,3-dihydro-1H-isoindol-5-yl}-1H-pyrrole-3-carboxamide]	65 nM
5.6 nM	CN(C(=O)c1cc(-c2cc3c(cc2C(=O)N2Cc4ccccc4C[C@H]2CN2CCOCC2)CN(C(=O)OCc2ccccc2)CC3)n2c1CCCC2)c1ccc(O)cc1 [Example 94, Benzyl 6-{1-[(4-hydroxyphenyl)(methyl)carbamoyl]-5,6,7,8-tetrahydroindolizin-3-yl}-7-[(3S)-3-(morpholin-4-ylmethyl)-1,2,3,4-tetrahydroisoquinoline-2-carbonyl]-1,2,3,4-tetrahydroisoquinoline-2-carboxylate]	19 nM
19 nM	CCNC(=O)N1Cc2cc(C(=O)N3Cc4ccccc4C[C@H]3C)c(-c3cc(C(=O)N(C)c4ccc(O)cc4)c(C)n3C)cc2C1 [Example 110, N-Ethyl-5-{4-[(4-hydroxyphenyl)(methyl)carbamoyl]-1,5-dimethyl-1H-pyrrol-2-yl}-6-[(3R)-3-methyl-1,2,3,4-tetrahydroisoquinoline-2-carbonyl]-2,3-dihydro-1H-isoindole-2-carboxamide]	329 nM
8.5 nM	Cc1c(C(=O)N(C)c2ccc(O)cc2)cc(-c2cc3c(cc2C(=O)N2Cc4ccccc4C[C@H]2CN2CCOCC2)CN(C(=O)COc2ccccc2)C3)n1C [Example 159, N-(4-Hydroxyphenyl)-N,1,2-trimethyl-5-{6-[(3S)-3-(morpholin-4-ylmethyl)-1,2,3,4-tetrahydroisoquinoline-2-carbonyl]-2-(2-phenoxyacetyl)-2,3-dihydro-1H-isoindol-5-yl}-1H-pyrrole-3-carboxamide]	163 nM
7 nM	C[C@@H]1Cc2ccccc2CN1C(=O)c1cc2c(cc1-c1cc(C(=O)N(C)c3ccc(O)cc3)c3n1CCCC3)CCN(C(=O)[C@H](C)c1ccccc1)C2 [Example 91, N-(4-Hydroxyphenyl)-N-methyl-3-{7-[(3R)-3-methyl-1,2,3,4-tetrahydroisoquinoline-2-carbonyl]-2-[(2R)-2-phenylpropanoyl]-1,2,3,4-tetrahydroisoquinolin-6-yl}-5,6,7,8-tetrahydroindolizine-1-carboxamide]	73 nM
13 nM	CC(Cc1ccccc1)C(=O)N1Cc2cc(C(=O)N3Cc4ccccc4C[C@H]3C)c(-c3cc(C(=O)N(C)c4ccc(O)cc4)c4n3CCCC4)cc2C1 (stereo partly drawn) [Example 23, 3-[2-(2-Benzylpropanoyl)-6-[(3R)-3-methyl-1,2,3,4-tetrahydroisoquinoline-2-carbonyl]-2,3-dihydro-1H-isoindol-5-yl]-N-(4-hydroxyphenyl)-N-methyl-5,6,7,8-tetrahydroindolizine-1-carboxamide]	61 nM
33 nM	C[C@@H]1Cc2ccccc2CN1C(=O)c1cc2c(cc1-c1cc(C(=O)N(C)c3ccc(O)cc3)c3n1CCCC3)CN(Cc1ccccc1)C2 [Example 33, 3-{2-Benzyl-6-[(3R)-3-methyl-1,2,3,4-tetrahydroisoquinoline-2-carbonyl]-2,3-dihydro-1H-isoindol-5-yl}-N-(4-hydroxyphenyl)-N-methyl-5,6,7,8-tetrahydroindolizine-1-carboxamide]	460 nM
4.4 nM	CN(C(=O)c1cc(-c2cc3c(cc2C(=O)N2Cc4ccccc4C[C@H]2CN2CCOCC2)CN(C(=O)NCc2ccccc2)CC3)n2c1CCCC2)c1ccc(O)cc1 [Example 78, N-Benzyl-6-{1-[(4-hydroxyphenyl)(methyl)carbamoyl]-5,6,7,8-tetrahydroindolizin-3-yl}-7-[(3S)-3-(morpholin-4-ylmethyl)-1,2,3,4-tetrahydroisoquinoline-2-carbonyl]-1,2,3,4-tetrahydroisoquinoline-2-carboxamide]	142 nM
23 nM	Cc1c(C(=O)N(C)c2ccc(O)cc2)cc(-c2cc3c(cc2C(=O)N2Cc4ccccc4C[C@H]2CN2CCN(C)CC2)CN(C(=O)C(F)(F)F)CC3)n1C [Example 783, N-(4-Hydroxyphenyl)-N,1,2-trimethyl-5-{7-[(3S)-3-[(4-methylpiperazin-1-yl)methyl]-1,2,3,4-tetrahydroisoquinoline-2-carbonyl]-2-(trifluoroacetyl)-1,2,3,4-tetrahydroisoquinolin-6-yl}-1H-pyrrole-3-carboxamide]	> 150 nM
5.1 nM	C[C@@H]1Cc2ccccc2CN1C(=O)c1cc2c(cc1-c1cc(C(=O)N(C)c3ccc(O)cc3)c3n1CCCC3)CN(C(=O)CSc1ccccc1)C2 [Example 171, N-(4-Hydroxyphenyl)-N-methyl-3-{6-[(3R)-3-methyl-1,2,3,4-tetrahydroisoquinoline-2-carbonyl]-2-[2-(phenylsulfanyl)acetyl]-2,3-dihydro-1H-isoindol-5-yl}-5,6,7,8-tetrahydroindolizine-1-carboxamide]	63 nM
28 nM	C[C@@H]1Cc2ccccc2CN1C(=O)c1cc2c(cc1-c1cc(C(=O)N(C)c3ccc(O)cc3)c3n1CCCC3)CN(CCC1CCCCC1)C2 [Example 29, 3-[2-(2-Cyclohexylethyl)-6-[(3R)-3-methyl-1,2,3,4-tetrahydroisoquinoline-2-carbonyl]-2,3-dihydro-1H-isoindol-5-yl]-N-(4-hydroxyphenyl)-N-methyl-5,6,7,8-tetrahydroindolizine-1-carboxamide]	> 150 nM
21 nM	C[C@@H]1Cc2ccccc2CN1C(=O)c1cc2c(cc1-c1cc(C(=O)N(C)c3ccc(O)cc3)c3n1CCCC3)CN(C(=O)N(C)C(C)(C)C)C2 [Example 81, N-tert-Butyl-5-{1-[(4-hydroxyphenyl)(methyl)carbamoyl]-5,6,7,8-tetrahydroindolizin-3-yl}-N-methyl-6-[(3R)-3-methyl-1,2,3,4-tetrahydroisoquinoline-2-carbonyl]-2,3-dihydro-1H-isoindole-2-carboxamide]	> 150 nM
20 nM	C[C@@H]1Cc2ccccc2CN1C(=O)c1cc2c(cc1-c1cc(C(=O)N(C)c3ccc(O)cc3)c3n1CCCC3)CN(C(=O)OCc1ccccc1)C2 [Example 62, Benzyl 5-{1-[(4-hydroxyphenyl)(methyl)carbamoyl]-5,6,7,8-tetrahydroindolizin-3-yl}-6-[(3R)-3-methyl-1,2,3,4-tetrahydroisoquinoline-2-carbonyl]-2,3-dihydro-1H-isoindole-2-carboxylate]	113 nM
5.3 nM	C[C@@H]1Cc2ccccc2CN1C(=O)c1cc2c(cc1-c1cc(C(=O)N(C)c3ccc(O)cc3)c3n1CCCC3)CCN(C(=O)Cc1cccc(NCCN(C)C)c1)C2 [Example 123, 3-{2-[2-(3-{[2-(Dimethylamino)ethyl]amino}phenyl)acetyl]-7-[(3R)-3-methyl-1,2,3,4-tetrahydroisoquinoline-2-carbonyl]-1,2,3,4-tetrahydroisoquinolin-6-yl}-N-(4-hydroxyphenyl)-N-methyl-5,6,7,8-tetrahydroindolizine-1-carboxamide]	8.3 nM
68 nM	CCCCN(CCCC)C(=O)c1cc(-c2cc3c(cc2C(=O)N2CCc4ccccc4C2)CN(C(=O)Oc2ccccc2)CC3)n(C)c1C [Example 161, Phenyl 6-[4-(dibutylcarbamoyl)-1,5-dimethyl-1H-pyrrol-2-yl]-7-(1,2,3,4-tetrahydroisoquinoline-2-carbonyl)-1,2,3,4-tetrahydroisoquinoline-2-carboxylate]	> 150 nM
8.4 nM	Cc1c(C(=O)N(C)c2ccc(O)cc2)cc(-c2cc3c(cc2C(=O)N2Cc4ccccc4C[C@H]2C)CN(C(=O)NCc2ccccc2)C3)n1C [Example 111, N-Benzyl-5-{4-[(4-hydroxyphenyl)(methyl)carbamoyl]-1,5-dimethyl-1H-pyrrol-2-yl}-6-[(3R)-3-methyl-1,2,3,4-tetrahydroisoquinoline-2-carbonyl]-2,3-dihydro-1H-isoindole-2-carboxamide]	64 nM

Compound	IC50 (Bcl-2 protein)	IC50 [1]
CN(C(=O)c1cc(-c2cc3c(cc2C(=O)N2Cc4ccccc4C[C@H]2CN2CCOCC2)CN(C(=O)Oc2ccccc2)CC3)n2c1CCCC2)c1ccc(O)cc1 [Example 69, Phenyl 6-{1-[(4-hydroxyphenyl)(methyl)carbamoyl]-5,6,7,8-tetrahydroindolizin-3-yl}-7-[(3S)-3-(morpholin-4-ylmethyl)-1,2,3,4-tetrahydroisoquinoline-2-carbonyl]-1,2,3,4-tetrahydroisoquinoline-2-carboxylate hydrochloride]	3.1 nM	3.46 nM
Cc1c(C(=O)N(C)c2ccccc2)cc(-c2cc3c(cc2C(=O)N2Cc4ccccc4C[C@H]2CN2CCOCC2)CN(C(=O)Oc2ccc(C#N)cc2)CC3)n1C [Example 152, 4-Cyanophenyl 6-{1,5-dimethyl-4-[methyl(phenyl)carbamoyl]-1H-pyrrol-2-yl}-7-[(3S)-3-(morpholin-4-ylmethyl)-1,2,3,4-tetrahydroisoquinoline-2-carbonyl]-1,2,3,4-tetrahydroisoquinoline-2-carboxylate]	6.5 nM	29 nM
Cc1c(C(=O)N(C)c2ccc(O)cc2)cc(-c2cc3c(cc2C(=O)N2Cc4ccccc4C[C@H]2CN2CCOCC2)CN(C(=O)Oc2ccc(Cl)cc2)CC3)n1C [Example 140, 4-Chlorophenyl 6-{4-[(4-hydroxyphenyl)(methyl)carbamoyl]-1,5-dimethyl-1H-pyrrol-2-yl}-7-[(3S)-3-(morpholin-4-ylmethyl)-1,2,3,4-tetrahydroisoquinoline-2-carbonyl]-1,2,3,4-tetrahydroisoquinoline-2-carboxylate]	6.6 nM	4 nM
